Measured values taken from ChEMBL document CHEMBL5370603, “N-(2-Aminophenyl)-benzamide Inhibitors of Class I HDAC Enzymes with Antiproliferative and Antifibrotic Activity” (J Med Chem, 2023).
Activity calls are given as the source filed them. No cut-off for these calls is given here.

Legend:
[1] = target: T1, Protein deacetylase HDAC6 (Homo sapiens, UniProt Q9UBN7); test: Inhibition of C-terminal FLAG-tagged human recombinant full length HDAC6 expressed in baculovirus expression system using Boc-Lys(Ac)-AMC as substrate preincubated with enzyme for 15 mins followed by substrate addition and measured after 60 mins by fluorescence based analysis
T1 sequence (Q9UBN7 whole entry): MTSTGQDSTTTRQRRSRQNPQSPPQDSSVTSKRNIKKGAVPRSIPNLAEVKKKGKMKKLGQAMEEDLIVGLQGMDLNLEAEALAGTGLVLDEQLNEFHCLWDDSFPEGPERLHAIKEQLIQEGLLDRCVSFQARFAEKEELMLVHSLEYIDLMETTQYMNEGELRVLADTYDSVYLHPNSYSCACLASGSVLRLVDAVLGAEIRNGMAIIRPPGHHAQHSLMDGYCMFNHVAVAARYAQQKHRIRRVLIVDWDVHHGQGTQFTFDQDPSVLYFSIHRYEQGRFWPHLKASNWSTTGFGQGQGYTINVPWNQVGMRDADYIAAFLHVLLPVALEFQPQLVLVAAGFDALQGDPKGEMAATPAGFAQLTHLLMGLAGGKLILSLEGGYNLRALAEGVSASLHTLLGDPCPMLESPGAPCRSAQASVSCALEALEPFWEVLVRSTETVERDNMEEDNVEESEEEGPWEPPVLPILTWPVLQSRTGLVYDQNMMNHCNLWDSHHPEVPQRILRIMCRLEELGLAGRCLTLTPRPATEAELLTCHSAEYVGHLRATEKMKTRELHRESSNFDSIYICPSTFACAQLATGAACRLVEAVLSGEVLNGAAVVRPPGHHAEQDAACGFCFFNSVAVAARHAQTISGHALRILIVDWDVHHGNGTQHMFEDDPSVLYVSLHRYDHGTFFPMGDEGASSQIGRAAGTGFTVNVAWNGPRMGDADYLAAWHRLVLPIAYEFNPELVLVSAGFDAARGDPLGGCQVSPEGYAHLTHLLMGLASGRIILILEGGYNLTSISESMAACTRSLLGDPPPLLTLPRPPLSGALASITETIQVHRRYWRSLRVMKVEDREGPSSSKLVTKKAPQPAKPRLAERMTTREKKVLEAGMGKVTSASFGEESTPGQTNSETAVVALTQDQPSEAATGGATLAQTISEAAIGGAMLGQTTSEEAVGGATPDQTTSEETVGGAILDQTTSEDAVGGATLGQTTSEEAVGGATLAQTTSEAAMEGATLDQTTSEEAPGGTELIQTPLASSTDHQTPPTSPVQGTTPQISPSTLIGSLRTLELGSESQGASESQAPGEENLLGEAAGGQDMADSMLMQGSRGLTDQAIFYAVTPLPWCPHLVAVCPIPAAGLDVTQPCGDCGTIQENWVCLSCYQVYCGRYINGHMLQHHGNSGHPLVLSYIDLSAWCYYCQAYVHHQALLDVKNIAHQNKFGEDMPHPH

Histone deacetylase 1 [2] = target: T2, Histone deacetylase 1 (Homo sapiens, UniProt Q13547); test: Inhibition of human recombinant HDAC1 using Ac-Leu-Gly-Lys(Ac)-AMC as substrate preincubated with enzyme for 30 mins followed by substrate addition and measured after 90 mins by fluorescence based analysis
A549 = test: Antiproliferative activity against human A549 cells assessed as inhibition of cell growth incubated for 72 hrs by MTT assay; assay type: functional, cell-based; settings: A549, 72 h
SF-268 = test: Antiproliferative activity against human SF-268 cells assessed as inhibition of cell growth incubated for 72 hrs by MTT assay; assay type: functional, cell-based; settings: SF-268, 72 h
Histone deacetylase 1 [3] = target: T2, Histone deacetylase 1; test: Inhibition of human recombinant HDAC1 using Ac-Leu-Gly-Lys(Ac)-AMC as substrate preincubated with enzyme for 30 mins followed by substrate addition and measured after 90 mins by fluorescence based analysis relative to control; settings: time 120.0 min
Histone deacetylase 2 = Histone deacetylase 2 (Homo sapiens, UniProt Q92769); test: Inhibition of human recombinant HDAC2 using Ac-Leu-Gly-Lys(Ac)-AMC as substrate preincubated with enzyme for 30 mins followed by substrate addition and measured after 90 mins by fluorescence based analysis
Histone deacetylase 3 = Histone deacetylase 3 (Homo sapiens, UniProt O15379); test: Inhibition of human recombinant HDAC3 using Ac-Leu-Gly-Lys(Ac)-AMC as substrate preincubated with enzyme for 30 mins followed by substrate addition and measured after 90 mins by fluorescence based analysis
Histone deacetylase 4 = Histone deacetylase 4 (Homo sapiens, UniProt P56524); test: Inhibition of N-terminal GST-tagged/C-terminal His tagged human recombinant HDAC4 (627 to 1084 residues) expressed in baculovirus-infected Sf9 cells using Ac-Leu-Gly-Lys(trifluoroAc)-AMC as substrate preincubated with enzyme for 15 mins followed by substrate addition and measured after 60 mins by fluorescence based analysis
Histone deacetylase 8 = target: T3, Histone deacetylase 8 (Homo sapiens, UniProt Q9BY41); test: Inhibition of C-terminal His-tagged human recombinant full length HDAC8 (1 to 377 residues) expressed in Sf9 cells using Ac-Leu-Gly-Lys(trifluoroAc)-AMC as substrate preincubated with enzyme for 30 mins followed by substrate addition and measured after 90 mins by fluorescence based analysis
T3 sequence (Q9BY41 whole entry): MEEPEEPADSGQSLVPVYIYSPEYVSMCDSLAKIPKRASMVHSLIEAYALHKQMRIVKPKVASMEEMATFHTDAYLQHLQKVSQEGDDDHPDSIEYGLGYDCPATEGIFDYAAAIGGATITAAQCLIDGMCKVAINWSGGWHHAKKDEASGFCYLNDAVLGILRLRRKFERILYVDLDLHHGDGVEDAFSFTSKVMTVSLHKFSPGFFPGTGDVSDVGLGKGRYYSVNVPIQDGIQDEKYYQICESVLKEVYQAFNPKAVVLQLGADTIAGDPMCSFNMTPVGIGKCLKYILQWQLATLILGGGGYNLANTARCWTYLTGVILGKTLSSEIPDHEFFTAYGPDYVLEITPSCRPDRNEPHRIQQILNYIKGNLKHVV

Caco-2 = test: Antiproliferative activity against human Caco-2 cells assessed as inhibition of cell growth incubated for 72 hrs by MTT assay; assay type: functional, cell-based; settings: Caco-2, 72 h
[4] = target: T4, Class 1 histone deacetylase (Homo sapiens) (UniProt Q13547+O15379+Q92769+Q9BY41); test: Inhibition of class I HDAC in human A549 cells assessed as increase in histone H3 acetylation at 5 uM incubated for 48 hrs by immunoblot analysis; assay type: cell-based
[5] = target: T4, Class 1 histone deacetylase (Homo sapiens); test: Inhibition of class I HDAC in human A549 cells assessed as downregulation of EGFR gene expression at 5 uM incubated for 48 hrs by qRT-PCR analysis; assay type: cell-based
[6] = target: T4, Class 1 histone deacetylase (Homo sapiens); test: Inhibition of class I HDAC in human A549 cells assessed as downregulation of EGFR protein expression at 5 uM incubated for 48 hrs by western blot analysis; assay type: cell-based
[7] = target: T5, Protein deacetylase HDAC6 (Homo sapiens) (UniProt Q9UBN7); test: Inhibition of HDAC6 in human A549 cells assessed as increase in acetylated alpha-tubulin level at 5 uM incubated for 48 hrs by immunoblot analysis; assay type: cell-based
T5 sequence (whole entry): T1 sequence (Q9UBN7 whole entry)

[8] = target: T4, Class 1 histone deacetylase (Homo sapiens); test: Inhibition of class I HDAC in human A549 cells assessed as downregulation of STAT3 gene expression at 5 uM incubated for 48 hrs by qRT-PCR analysis; assay type: cell-based
[9] = target: T4, Class 1 histone deacetylase (Homo sapiens); test: Inhibition of class I HDAC in human A549 cells assessed as downregulation of ERBB2 gene expression at 5 uM incubated for 48 hrs by qRT-PCR analysis; assay type: cell-based
[10] = target: T4, Class 1 histone deacetylase (Homo sapiens); test: Inhibition of class I HDAC in human A549 cells assessed as downregulation of MYC gene expression at 5 uM incubated for 48 hrs by qRT-PCR analysis; assay type: cell-based

Chain of Histone deacetylase 4 (P56524 whole entry, the tested form may be a part): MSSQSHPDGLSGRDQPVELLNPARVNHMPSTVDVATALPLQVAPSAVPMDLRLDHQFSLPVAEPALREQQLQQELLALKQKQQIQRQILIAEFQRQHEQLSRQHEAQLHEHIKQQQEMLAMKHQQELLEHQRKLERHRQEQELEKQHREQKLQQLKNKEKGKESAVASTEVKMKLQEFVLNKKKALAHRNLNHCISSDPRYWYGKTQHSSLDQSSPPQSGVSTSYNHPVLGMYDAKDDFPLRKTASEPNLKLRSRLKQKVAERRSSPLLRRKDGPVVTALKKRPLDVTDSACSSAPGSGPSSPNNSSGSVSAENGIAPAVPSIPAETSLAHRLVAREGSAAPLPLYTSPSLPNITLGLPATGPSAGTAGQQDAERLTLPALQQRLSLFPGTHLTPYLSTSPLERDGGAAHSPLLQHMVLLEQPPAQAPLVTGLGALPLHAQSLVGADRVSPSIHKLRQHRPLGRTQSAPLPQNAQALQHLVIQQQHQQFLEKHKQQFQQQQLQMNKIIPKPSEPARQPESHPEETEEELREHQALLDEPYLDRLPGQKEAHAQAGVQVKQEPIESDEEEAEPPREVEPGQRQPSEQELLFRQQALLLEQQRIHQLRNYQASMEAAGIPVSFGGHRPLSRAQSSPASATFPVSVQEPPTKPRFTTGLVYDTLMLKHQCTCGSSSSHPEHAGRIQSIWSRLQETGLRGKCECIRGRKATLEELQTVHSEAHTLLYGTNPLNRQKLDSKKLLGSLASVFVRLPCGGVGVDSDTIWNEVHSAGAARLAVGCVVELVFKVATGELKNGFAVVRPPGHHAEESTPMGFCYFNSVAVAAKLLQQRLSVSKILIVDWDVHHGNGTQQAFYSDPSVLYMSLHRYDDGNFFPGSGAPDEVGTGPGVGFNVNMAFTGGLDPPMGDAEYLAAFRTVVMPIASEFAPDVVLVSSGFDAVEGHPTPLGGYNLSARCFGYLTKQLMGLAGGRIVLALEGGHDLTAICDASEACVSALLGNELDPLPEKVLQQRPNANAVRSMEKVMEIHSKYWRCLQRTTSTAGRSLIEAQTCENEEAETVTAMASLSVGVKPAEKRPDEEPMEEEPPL
Chain of Histone deacetylase 3 (O15379 whole entry, the tested form may be a part): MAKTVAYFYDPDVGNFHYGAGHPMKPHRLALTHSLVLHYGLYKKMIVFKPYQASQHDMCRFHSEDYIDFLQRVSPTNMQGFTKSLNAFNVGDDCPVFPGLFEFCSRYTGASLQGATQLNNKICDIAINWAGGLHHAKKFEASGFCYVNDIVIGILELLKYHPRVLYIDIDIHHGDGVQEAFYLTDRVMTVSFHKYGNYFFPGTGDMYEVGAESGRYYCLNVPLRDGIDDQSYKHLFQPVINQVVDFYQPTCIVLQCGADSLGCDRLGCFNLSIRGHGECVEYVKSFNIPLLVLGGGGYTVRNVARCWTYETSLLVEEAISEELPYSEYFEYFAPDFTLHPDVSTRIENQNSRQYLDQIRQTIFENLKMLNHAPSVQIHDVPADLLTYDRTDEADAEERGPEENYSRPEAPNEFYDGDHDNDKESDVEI
T2 sequence (Q13547 whole entry): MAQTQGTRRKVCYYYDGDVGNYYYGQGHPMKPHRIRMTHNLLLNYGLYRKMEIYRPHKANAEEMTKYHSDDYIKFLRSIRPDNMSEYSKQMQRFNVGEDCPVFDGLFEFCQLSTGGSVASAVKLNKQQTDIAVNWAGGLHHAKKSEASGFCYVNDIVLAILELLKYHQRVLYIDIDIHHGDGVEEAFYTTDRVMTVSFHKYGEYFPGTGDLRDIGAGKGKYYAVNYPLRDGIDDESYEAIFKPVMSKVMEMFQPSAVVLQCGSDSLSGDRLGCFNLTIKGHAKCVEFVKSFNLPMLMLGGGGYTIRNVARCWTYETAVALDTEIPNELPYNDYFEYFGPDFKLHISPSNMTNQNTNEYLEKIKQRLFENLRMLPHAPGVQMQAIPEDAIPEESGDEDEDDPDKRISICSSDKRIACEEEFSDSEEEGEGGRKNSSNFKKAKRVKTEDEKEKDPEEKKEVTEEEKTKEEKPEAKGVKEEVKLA
Chain of Histone deacetylase 2 (Q92769 whole entry): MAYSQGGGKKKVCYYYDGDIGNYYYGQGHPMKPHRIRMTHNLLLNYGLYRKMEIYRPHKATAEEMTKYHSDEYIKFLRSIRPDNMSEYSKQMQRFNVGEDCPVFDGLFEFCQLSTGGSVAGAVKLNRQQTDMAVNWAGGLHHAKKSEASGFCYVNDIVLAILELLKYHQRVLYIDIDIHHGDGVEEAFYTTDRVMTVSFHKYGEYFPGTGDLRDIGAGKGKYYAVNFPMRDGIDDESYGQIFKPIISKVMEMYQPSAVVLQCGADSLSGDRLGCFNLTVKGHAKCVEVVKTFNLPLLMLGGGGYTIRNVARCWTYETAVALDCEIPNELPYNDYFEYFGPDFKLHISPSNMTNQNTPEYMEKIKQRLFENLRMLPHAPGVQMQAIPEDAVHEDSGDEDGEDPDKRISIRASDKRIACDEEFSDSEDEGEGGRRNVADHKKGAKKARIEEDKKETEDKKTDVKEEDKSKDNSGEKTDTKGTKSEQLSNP

Compound | IC50 [1] | IC50 (Histone deacetylase 1 [2]) | IC50 (A549) | IC50 (SF-268) | IC50 (Histone deacetylase 2) | other results
Nc1ccccc1NC(=O)c1ccc(COc2ccc(CNC(=O)C3CCCO3)cc2)cc1 (stereo not given) | > 10 µM | 111 nM | > 25 µM | > 25 µM | – | inhibition (Histone deacetylase 1 [3]): 75%
Nc1ccccc1NC(=O)c1ccc(COc2ccc(CNC(=O)[C@@H]3CCCN3C(=O)OCc3ccccc3)cc2)cc1 | > 10 µM | 202 nM | > 25 µM | 12.7 µM | – | –
Nc1ccccc1NC(=O)c1ccc(COc2ccc(CNC(=O)[C@H]3CCCN3Cc3ccccc3)cc2)cc1 | > 100 µM | 93 nM | 4.7 µM | 3.1 µM | 83 nM | –
Nc1ccccc1NC(=O)c1ccc(COc2ccc(CNC(=O)[C@@H]3CCCN3)cc2)cc1 | > 100 µM | 55 nM | 10 µM | 3.3 µM | 72 nM | IC50 (Histone deacetylase 3): 61 nM; IC50 (Histone deacetylase 4): > 100 µM; IC50 (Histone deacetylase 8): > 10 µM
Nc1ccccc1NC(=O)c1ccc(COc2ccc(CNC(=O)c3ccccn3)cc2)cc1 | > 10 µM | 200 nM | 6.8 µM | 9.8 µM | – | –
NCc1ccc(OCc2ccc(C(=O)Nc3ccccc3N)cc2)cc1 | > 10 µM | 100 nM | > 25 µM | 8.5 µM | – | IC50 (Histone deacetylase 3): 52 nM; IC50 (Histone deacetylase 4): > 100 µM; IC50 (Histone deacetylase 8): > 10 µM
O=C(O)c1ccc(COc2ccc(CNC(=O)[C@@H]3CCC(=O)N3Cc3ccccc3)cc2)cc1 | > 10 µM | > 10000 nM | > 25 µM | > 25 µM | – | –
Nc1ccccc1NC(=O)c1ccc(COc2ccc(CNC(=O)[C@@H]3CCC(=O)N3Cc3ccc(Br)cc3)cc2)cc1 | > 100 µM | 51 nM | 9.2 µM | 6.6 µM | 82 nM | –
Nc1ccccc1NC(=O)c1ccc(COc2ccc(CNC(=O)[C@@H]3CCC(=O)N3Cc3ccc(F)cc3)cc2)cc1 | > 100 µM | 216 nM | 6.9 µM | 6.5 µM | 348 nM | IC50 (Caco-2): 1900 nM
O=C(Nc1ccccc1)c1ccc(COc2ccc(CNC(=O)[C@@H]3CCC(=O)N3Cc3ccccc3)cc2)cc1 | > 10 µM | > 10000 nM | > 25 µM | > 25 µM | – | –
Nc1ccccc1NC(=O)c1ccc(COc2ccc(CNC(=O)c3cc4ccccc4[nH]3)cc2)cc1 | > 10 µM | 182 nM | 5.2 µM | 16.5 µM | – | –
Nc1ccccc1NC(=O)c1ccc(COc2ccc(CNC(=O)[C@H]3CCC(=O)N3Cc3ccccc3)cc2)cc1 | > 100 µM | 92 nM | 3.9 µM | 3.4 µM | 143 nM | inhibition [4]: Active; IC50 (Histone deacetylase 3): 431 nM; IC50 (Histone deacetylase 4): > 100 µM; IC50 (Caco-2): 1900 nM; inhibition [5]: Active; inhibition [6]: Active; inhibition [7]: inactive; inhibition [8]: inactive; inhibition [9]: inactive; inhibition [10]: inactive; IC50 (Histone deacetylase 8): > 10 µM
Nc1ccccc1NC(=O)c1ccc(COc2ccc(CN3C(=O)CC[C@H]3CC(=O)NCc3ccccc3)cc2)cc1 | > 100 µM | 84 nM | 15 µM | 7.1 µM | 217 nM | –
O=C(O)c1ccc(COc2ccc(CNC(=O)[C@@H]3CCC(=O)N3Cc3ccc(Br)cc3)cc2)cc1 | > 10 µM | > 10000 nM | > 25 µM | > 25 µM | – | –
O=C(NO)c1ccc(COc2ccc(CNC(=O)[C@@H]3CCC(=O)N3Cc3ccccc3)cc2)cc1 | 0.143 µM | 1980 nM | > 25 µM | – | – | –
O=C(NCc1ccc(OCc2ccc(B(O)O)cc2)cc1)[C@@H]1CCC(=O)N1Cc1ccccc1 | > 10 µM | > 10000 nM | > 25 µM | > 25 µM | – | –
Nc1ccccc1NC(=O)c1ccc(COc2ccc(NC(=O)[C@@H]3CCC(=O)N3Cc3ccccc3)cc2)cc1 | > 10 µM | 430 nM | > 25 µM | > 25 µM | – | inhibition (Histone deacetylase 1 [3]): 75%
CC(C)(C)OC(=O)NCc1ccc(OCc2ccc(C(=O)Nc3ccccc3N)cc2)cc1 | > 10 µM | 1710 nM | 14.6 µM | 8.6 µM | – | –
Nc1ccccc1NC(=O)c1ccc(COc2ccc(CNC(=O)[C@@H]3CCCN3Cc3ccccc3)cc2)cc1 | > 100 µM | 113 nM | 3.7 µM | 3.4 µM | 192 nM | inhibition [4]: Active; IC50 (Histone deacetylase 3): 387 nM; IC50 (Histone deacetylase 4): > 100 µM; IC50 (Caco-2): 1900 nM; inhibition [5]: Active; inhibition [6]: Active; inhibition [7]: inactive; inhibition [8]: inactive; inhibition [9]: inactive; inhibition [10]: inactive; IC50 (Histone deacetylase 8): > 10 µM
Nc1ccccc1NC(=O)c1ccc(COc2ccc(CNC(=O)[C@@H]3CCCN3Cc3ccc(F)cc3)cc2)cc1 | > 100 µM | 130 nM | 5.1 µM | 4.8 µM | 196 nM | –
O=C(NCc1ccccc1)c1ccc(COc2ccc(CNC(=O)[C@@H]3CCC(=O)N3Cc3ccccc3)cc2)cc1 | > 10 µM | > 10000 nM | > 25 µM | > 25 µM | – | –
O=C(O)c1ccc(COc2ccc(CNC(=O)[C@@H]3CCCN3Cc3ccccc3)cc2)cc1 | > 10 µM | > 10000 nM | > 25 µM | > 25 µM | – | –
Nc1ccccc1NC(=O)c1ccc(COc2ccc(CNC(=O)[C@@H]3CCCN3C(=O)c3ccccc3)cc2)cc1 | > 10 µM | 216 nM | 16 µM | 9.2 µM | – | –
